Source: patent US20090186809A1, “USE OF VALPROIC ACID FOR THE TOPICAL TREATMENT OF MILD TO MODERATE ACNE VULGARIS” (TOPOTARGET GERMANY AG, priority 2006, published 2009)

Tests used:
[1] = patients' assessment of local tolerability (5-point scale) and adverse events; format: in vivo, human; settings: for assessments of local tolerability graded "acceptable" / assessments of local tolerability graded "poor" / assessments of local tolerability graded "well": percentage of all patient assessments over the study visits, topical
Method: • Safety laboratory parameters • Clinical safety examinations • Adverse events • Patient's assessment of local tolerability according to a 5-point scale.
In addition to the assessment of the therapeutical efficacy, the patients' assessments of local tolerability and the side effect profile was recorded in this clinical study described in example 1. FIG. 4 summarizes the patients' assessments of local tolerability which was recorded on each visit of the patients during the study period which took place on days 14, 24, 56 and 85. The patients assessed their perception of local tolerability according to the following grading scheme: […]

[2] = system: mild to moderate facial acne vulgaris; assay: double-blind, randomized clinical study: counting of facial acne lesions; format: in vivo, human; settings: for patients displaying for the first time a reduction of ≧30% in the total counts of all acne lesions: topical once daily, VPA 3% gel, isotretinoin 0.05% gel; for mean reduction of the number of acne lesions: day 85 compared to baseline (day 1), topical monotherapy
Method: This study was carried out as a double-blind, randomized study. Under informed consent patients with mild to moderate facial acne vulgaris were enrolled in the study. The treatment period was 12 weeks.
(§1) VPA was provided as a clear off-white, semi-solid 3% gel (30 mg/ml VPA). After washing the face with a mild cleanser, the gel was applied daily to the clean and dry skin once daily.
As a comparator reference therapy the retinoid isotretinoin was provided as a 0.05% gel (0.5 mg isotretinoin/g).
• Assessment of the therapeutic efficacy compared to the baseline was evaluated separately by the investigator and by the patient according to a 7-point scale • Counting of lesions in the entire face • Investigator's overall assessment of improvement by means of a photo documentation.
• efficacy: change of total count of facial acne lesions from baseline to the end of week 12 (comparing day 1 to day 85, i.e., d1, d85)
• efficacy: time to reduction of acne lesions by >30% • count of acne lesions in the face after 2, 4, 8 and 12 weeks of treatment and its percentage and absolute change to baseline • safety/tolerability: safety laboratory parameters • clinical safety • patient's assessment of local tolerability
In the clinical study described in Example 1, also the time to reduction of the total counts by ≧30% of all acne lesions treated was investigated on each visit of the patients to the study hospital. Once the reduction had reached ≧30%, the actual at this point estimated reduction rate and the day of the visit was recorded.
In the clinical study described in Example 1, the counts of acne lesions treated were also assessed as counts of different types of lesions separately, i.e., recording the number of inflammatory lesions, and recording the number of non-inflammatory lesions separately.

[3] = VPA content in blood (serum) after topical application, HPLC; format: in vivo; settings: human, read-out: serum level of VPA
Method: as §1
In parallel, an analysis of the VPA content in the blood of acne vulgaris patients treated topically with a 3% VPA containing medication was performed using HPLC based methodology, and the results are presented in FIG. 3. […] These serum concentration levels were measured after daily treatment with up to approx. 2.000 mg of a 3% VPA containing medication topically applied which refers to a total daily dose of VPA approx. 60 mg. If more or larger lesions would be treated, and therefore higher daily amounts of VPA would be topically applied, it is expected that accordingly higher serum levels may be obtained.

| SMILES | assessments of local tolerability graded "acceptable" [1] [%] | assessments of local tolerability graded "poor" [1] [%] | assessments of local tolerability graded "well" [1] [%] | patients displaying for the first time a reduction of ≧30% in the total counts of all acne lesions ([2]; day 28) | patients displaying for the first time a reduction of ≧30% in the total counts of all acne lesions ([2]; day 85) | mean reduction of the number of acne lesions [2] | adverse events observed ([1]; patients treated topically, all resolved after end of study) | median counts of inflammatory lesions ([2]; end of treatment day 85, day 1 before treatment 30) [lesions] | median counts of non-inflammatory lesions ([2]; end of treatment day 85, day 1 before treatment 41) [lesions] | concentration at 56 day ([3]; day 56, daily topical up to approx. 2.000 mg of 3% VPA medication (approx. 60 mg VPA)) [ng/mL] | concentration at 85 day ([3]; day 85, daily topical up to approx. 2.000 mg of 3% VPA medication (approx. 60 mg VPA)) [ng/mL] |
| --- | --- | --- | --- | --- | --- | --- | --- | --- | --- | --- | --- |
| CC1=C(/C=C/C(C)=C/C=C/C(C)=C\C(=O)O)C(C)(C)CCC1 [isotretinoin] | 40.5 | 11.9 | 38.1 | three | two | approx. 54% |  |  |  |  |  |
| CCCC(CCC)C(=O)O [VPA, 2-propyl-pentanoic acid] | 23.8 | 4.8 | 61.9 | three | two | approx. 57% | mild to moderate administration site conditions | 14.4 | 11.5 | ≤ 2440 | ≤ 1590 |
